{
  "source": "patent US6689399B1",
  "about": "“Transdermal delivery of an anti-inflammatory composition” (priority 2000, dated 2004)",
  "origin": "cited, not measured here",
  "key": {"[1]": {"details": "four trials, 0.075% capsaicin cream four times daily for 4-8 weeks; placebo 49%"}, "[2]": {"details": "single trial, 0.075% capsaicin cream four times daily for six weeks; 5/13; placebo 10%"}, "[3]": {"details": "single trial, 0.075% capsaicin cream three or four times daily for three weeks; 4/16; placebo 6%"}, "[4]": {"details": "three trials, capsaicin cream (two 0.025%, one 0.075%) four times daily for four weeks; placebo 16%"}, "[5]": {"details": "four trials, 0.025% capsaicin cream four times daily for 6-8 weeks; placebo 42%"}},
  "data": [
    {"smiles": "COc1cc(CNC(=O)CCCC/C=C/C(C)C)ccc1O", "note": "[capsaicin, trans-8-methyl-N-vanillyl-6-nonenamide]", "values": [
      {"measurement": "patients responding to capsaicin, diabetic neuropathy", "setting": "[1]", "value": 73, "unit": "%"},
      {"measurement": "patients reporting pain relief, postmastectomy pain", "setting": "[2]", "value": 38, "unit": "%"},
      {"measurement": "patients reporting pain relief, postherpetic neuralgia", "setting": "[3]", "value": 25, "unit": "%"},
      {"measurement": "patients responding to capsaicin, osteoarthritis", "setting": "[4]", "value": 45, "unit": "%"},
      {"measurement": "patients responding to capsaicin, psoriasis", "setting": "[5]", "value": 68, "unit": "%"}
    ]}
  ]
}
